# In ChEMBL document CHEMBL4145533, “6,7-Dimorpholinoalkoxy quinazoline derivatives as potent EGFR inhibitors with enhanced antiproliferative activities against tumor cells” (Eur J Med Chem, 2018):
# Active and inactive are the calls of the source. The rule behind the calls is not given here.
# How the values were obtained:
# HCC827 = assay: Antiproliferative activity against human HCC827 cells harboring EGFR E746-A750 del mutant after 72 hrs by MTT assay; assay type: functional, cell-based; settings: HCC827, 72 h
# NCI-H1975 = assay: Antiproliferative activity against human NCI-H1975 cells harboring EGFR L858R/T790M double mutant after 72 hrs by MTT assay; assay type: functional, cell-based; settings: NCI-H1975, 72 h
# [1] = biological target: T1, Epidermal growth factor receptor (Homo sapiens, UniProt P00533); assay type: cell-based, HEK293
# T1 sequence (P00533 whole entry): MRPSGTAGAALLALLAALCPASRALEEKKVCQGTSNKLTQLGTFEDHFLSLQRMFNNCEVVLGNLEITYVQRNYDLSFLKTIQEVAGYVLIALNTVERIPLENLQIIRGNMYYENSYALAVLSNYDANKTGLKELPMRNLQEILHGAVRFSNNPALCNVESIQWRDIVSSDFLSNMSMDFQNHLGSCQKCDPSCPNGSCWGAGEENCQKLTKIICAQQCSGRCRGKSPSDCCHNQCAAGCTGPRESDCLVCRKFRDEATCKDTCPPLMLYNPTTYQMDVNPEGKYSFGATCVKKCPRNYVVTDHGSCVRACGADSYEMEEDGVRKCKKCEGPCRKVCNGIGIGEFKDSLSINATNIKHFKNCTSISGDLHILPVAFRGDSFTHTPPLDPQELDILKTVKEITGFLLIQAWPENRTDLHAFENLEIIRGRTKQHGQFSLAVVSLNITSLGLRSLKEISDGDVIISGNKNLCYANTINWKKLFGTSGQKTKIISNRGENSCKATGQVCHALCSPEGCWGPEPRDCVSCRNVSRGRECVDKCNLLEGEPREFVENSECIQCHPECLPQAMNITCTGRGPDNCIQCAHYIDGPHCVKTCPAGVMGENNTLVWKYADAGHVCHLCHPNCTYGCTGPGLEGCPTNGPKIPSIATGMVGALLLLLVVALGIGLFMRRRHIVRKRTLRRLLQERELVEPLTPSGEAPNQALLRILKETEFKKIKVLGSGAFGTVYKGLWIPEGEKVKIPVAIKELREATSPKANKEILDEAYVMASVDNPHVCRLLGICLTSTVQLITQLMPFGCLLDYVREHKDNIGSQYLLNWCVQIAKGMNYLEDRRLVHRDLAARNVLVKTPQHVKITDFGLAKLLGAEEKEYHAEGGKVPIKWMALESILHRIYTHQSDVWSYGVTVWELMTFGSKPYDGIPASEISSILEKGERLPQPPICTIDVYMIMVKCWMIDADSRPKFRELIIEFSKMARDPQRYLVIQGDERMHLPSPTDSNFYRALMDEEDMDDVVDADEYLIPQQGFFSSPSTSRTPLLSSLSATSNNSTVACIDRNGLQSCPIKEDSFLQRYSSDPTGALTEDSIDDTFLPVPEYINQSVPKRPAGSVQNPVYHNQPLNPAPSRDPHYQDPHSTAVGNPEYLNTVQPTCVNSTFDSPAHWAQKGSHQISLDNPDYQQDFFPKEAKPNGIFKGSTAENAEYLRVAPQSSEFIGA
# Description: Inhibition of recombinant human N-terminal His-tagged EGFR (1 to 645 residues) expressed in HEK293 cells by ELISA
# [2] = biological target: Epidermal growth factor receptor (Homo sapiens, UniProt P00533, T790M); assay: Inhibition of EGFR T790M mutant (unknown origin) preincubated for 10 mins followed by TK substrate-botion addition measured after 1 hr by spectrophotometric method
# Chain of Epidermal growth factor receptor (Homo sapiens, UniProt P00533, T790M) (P00533 25-1210 T790M limits assumed): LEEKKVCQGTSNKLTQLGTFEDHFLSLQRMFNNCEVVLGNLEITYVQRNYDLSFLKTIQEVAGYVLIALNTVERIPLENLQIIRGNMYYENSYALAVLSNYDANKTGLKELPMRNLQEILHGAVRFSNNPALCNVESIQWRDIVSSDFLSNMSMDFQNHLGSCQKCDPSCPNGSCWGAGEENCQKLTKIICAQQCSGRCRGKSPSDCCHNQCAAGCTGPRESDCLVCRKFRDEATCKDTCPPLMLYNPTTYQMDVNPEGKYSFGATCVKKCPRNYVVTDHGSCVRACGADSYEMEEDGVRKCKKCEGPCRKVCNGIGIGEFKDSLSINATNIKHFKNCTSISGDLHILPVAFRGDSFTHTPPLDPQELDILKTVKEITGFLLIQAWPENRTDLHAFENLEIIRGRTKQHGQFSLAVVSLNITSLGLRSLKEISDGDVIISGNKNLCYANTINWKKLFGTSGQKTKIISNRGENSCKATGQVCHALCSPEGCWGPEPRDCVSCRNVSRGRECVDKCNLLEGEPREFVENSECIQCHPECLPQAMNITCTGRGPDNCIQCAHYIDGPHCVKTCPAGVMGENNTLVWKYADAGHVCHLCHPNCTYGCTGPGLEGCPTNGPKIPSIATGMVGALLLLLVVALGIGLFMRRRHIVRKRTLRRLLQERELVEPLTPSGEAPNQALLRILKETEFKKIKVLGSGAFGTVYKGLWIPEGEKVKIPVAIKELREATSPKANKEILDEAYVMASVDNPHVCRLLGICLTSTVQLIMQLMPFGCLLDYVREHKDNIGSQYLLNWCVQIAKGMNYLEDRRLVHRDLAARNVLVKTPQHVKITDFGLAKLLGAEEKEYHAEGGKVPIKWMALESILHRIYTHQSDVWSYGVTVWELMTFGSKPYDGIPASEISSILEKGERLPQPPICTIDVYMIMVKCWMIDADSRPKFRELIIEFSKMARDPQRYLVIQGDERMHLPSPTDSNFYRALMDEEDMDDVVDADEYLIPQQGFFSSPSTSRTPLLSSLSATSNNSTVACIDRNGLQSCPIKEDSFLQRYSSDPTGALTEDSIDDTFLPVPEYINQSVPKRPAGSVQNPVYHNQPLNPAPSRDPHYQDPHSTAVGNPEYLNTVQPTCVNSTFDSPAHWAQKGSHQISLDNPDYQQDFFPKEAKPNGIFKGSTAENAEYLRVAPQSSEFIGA
# [3] = biological target: T1, Epidermal growth factor receptor; assay: Inhibition of EGF-induced EGFR phosphorylation at Y992 residue in human A549 cells at 0.2 uM preincubated for 2 hrs followed by EGF stimulation measured after 10 mins by Western blot analysis; assay type: cell-based
# [4] = biological target: T1, Epidermal growth factor receptor; assay: Inhibition of EGF-induced EGFR activation in human A549 cells assessed as reduction in Akt phosphorylation at S473 residue at 0.2 uM preincubated for 2 hrs followed by EGF stimulation measured after 10 mins by Western blot analysis; assay type: cell-based
# A549 [5] = assay: Effect on total Akt protein expression in human A549 cells at 0.2 to 5 uM after 2 hrs by Western blot analysis; assay type: ADME, cell-based; settings: a549, 2 h
# [6] = biological target: T1, Epidermal growth factor receptor; assay: Inhibition of EGF-induced EGFR activation in human A549 cells assessed as reduction in STAT3 phosphorylation at 0.2 to 5 uM preincubated for 2 hrs followed by EGF stimulation measured after 10 mins by Western blot analysis; assay type: cell-based
# [7] = system: Epidermal growth factor receptor (Homo sapiens), P00533 [L858R,T790M]; assay: Inhibition of EGF-induced EGFR L858R/T790M double mutant phosphorylation at Y1068 residue in human NCI-H1975 cells preincubated for 2 hrs followed by EGF stimulation measured after 10 mins by Western blot analysis; assay type: cell-based
# Chain of Epidermal growth factor receptor (Homo sapiens), P00533 [L858R,T790M] (P00533 whole entry T790M/L858R, looked up): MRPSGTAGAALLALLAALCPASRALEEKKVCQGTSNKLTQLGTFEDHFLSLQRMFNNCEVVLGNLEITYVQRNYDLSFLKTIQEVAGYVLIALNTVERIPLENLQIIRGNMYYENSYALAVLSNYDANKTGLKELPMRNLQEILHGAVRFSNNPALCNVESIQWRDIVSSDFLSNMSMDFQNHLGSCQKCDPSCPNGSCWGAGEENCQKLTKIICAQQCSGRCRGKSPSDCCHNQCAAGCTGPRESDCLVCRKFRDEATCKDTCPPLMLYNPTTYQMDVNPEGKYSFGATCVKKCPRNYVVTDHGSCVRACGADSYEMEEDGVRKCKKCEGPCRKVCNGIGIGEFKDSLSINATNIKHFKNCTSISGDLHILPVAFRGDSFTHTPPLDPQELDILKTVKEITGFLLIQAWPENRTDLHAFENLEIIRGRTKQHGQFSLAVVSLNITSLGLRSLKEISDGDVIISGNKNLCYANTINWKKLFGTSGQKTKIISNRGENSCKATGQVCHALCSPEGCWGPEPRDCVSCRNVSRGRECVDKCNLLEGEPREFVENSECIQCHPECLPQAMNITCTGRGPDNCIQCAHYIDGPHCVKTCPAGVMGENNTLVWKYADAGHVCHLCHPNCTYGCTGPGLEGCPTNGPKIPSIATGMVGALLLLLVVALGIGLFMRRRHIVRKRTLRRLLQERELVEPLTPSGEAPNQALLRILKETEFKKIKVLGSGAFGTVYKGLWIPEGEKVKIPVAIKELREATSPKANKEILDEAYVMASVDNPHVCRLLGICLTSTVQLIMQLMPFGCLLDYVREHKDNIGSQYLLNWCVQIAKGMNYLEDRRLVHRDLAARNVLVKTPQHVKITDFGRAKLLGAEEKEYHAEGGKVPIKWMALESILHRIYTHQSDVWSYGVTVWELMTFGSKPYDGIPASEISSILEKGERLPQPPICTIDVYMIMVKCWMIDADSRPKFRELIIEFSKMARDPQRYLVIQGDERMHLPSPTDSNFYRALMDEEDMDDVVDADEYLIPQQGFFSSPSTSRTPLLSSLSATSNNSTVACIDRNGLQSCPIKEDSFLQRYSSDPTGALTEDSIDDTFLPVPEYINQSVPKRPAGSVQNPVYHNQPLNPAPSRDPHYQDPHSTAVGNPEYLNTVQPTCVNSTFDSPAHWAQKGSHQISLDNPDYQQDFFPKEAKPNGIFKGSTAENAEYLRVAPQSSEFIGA
# [8] = system: Epidermal growth factor receptor (Homo sapiens), P00533 [L858R,T790M]; assay: Inhibition of EGF-induced EGFR L858R/T790M double mutant activation in human NCI-H1975 cells assessed as reduction in STAT3 phosphorylation at Y705 residue at 5 uM preincubated for 2 hrs followed by EGF stimulation measured after 10 mins by Western blot analysis; assay type: cell-based
# A549 [9] = assay: Induction of apoptosis in human A549 cells assessed as early apoptotic cells at 3 uM after 48 hrs by Annexin V-FITC/propidium iodide satining based FACS analysis (reference value: 2.78%); assay type: functional
# A549 [10] = assay: Induction of apoptosis in human A549 cells assessed as late apoptotic cells at 3 uM after 48 hrs by Annexin V-FITC/propidium iodide satining based FACS analysis (reference value: 1.21%); assay type: functional
# A549 [11] = assay: Induction of apoptosis in human A549 cells assessed as necrotic cells at 3 uM after 48 hrs by Annexin V-FITC/propidium iodide satining based FACS analysis (reference value: 0.14%); assay type: functional
# A549 [12] = assay: Induction of apoptosis in human A549 cells assessed as early apoptotic cells at 2 uM after 48 hrs by Annexin V-FITC/propidium iodide satining based FACS analysis (reference value: 2.78%); assay type: functional
# A549 [13] = assay: Induction of apoptosis in human A549 cells assessed as necrotic cells at 2 uM after 48 hrs by Annexin V-FITC/propidium iodide satining based FACS analysis (reference value: 0.14%); assay type: functional
# A549 [14] = assay: Induction of apoptosis in human A549 cells assessed as viable cells at 1 uM after 48 hrs by Annexin V-FITC/propidium iodide satining based FACS analysis (reference value: 95.87%); assay type: functional; settings: A549, 48 h, read-out: Activity
# A549 [15] = assay: Induction of apoptosis in human A549 cells assessed as early apoptotic cells at 1 uM after 48 hrs by Annexin V-FITC/propidium iodide satining based FACS analysis (reference value: 2.78%); assay type: functional
# A549 [16] = assay: Induction of apoptosis in human A549 cells assessed as late apoptotic cells at 1 uM after 48 hrs by Annexin V-FITC/propidium iodide satining based FACS analysis (reference value: 1.21%); assay type: functional
# A549 [17] = assay: Induction of apoptosis in human A549 cells assessed as necrotic cells at 1 uM after 48 hrs by Annexin V-FITC/propidium iodide satining based FACS analysis (reference value: 0.14%); assay type: functional
# A549 [18] = assay: Induction of apoptosis in human A549 cells after 48 hrs by Annexin V-FITC/propidium iodide satining based FACS analysis; assay type: functional, cell-based
# A549 [19] = assay: Cell cycle arrest in human A549 cells assessed as accumulation at S phase at 5 uM after 48 hrs by propidium iodide satining based FACS analysis (reference value: 34.45%); assay type: functional
# A549 [20] = assay: Cell cycle arrest in human A549 cells assessed as accumulation at S phase at 1 uM after 48 hrs by propidium iodide satining based FACS analysis (reference value: 34.45%); assay type: functional
# A549 [21] = assay: Cell cycle arrest in human A549 cells assessed as accumulation at G0/G1 phase at 0.5 uM after 48 hrs by propidium iodide satining based FACS analysis (reference value: 48.87%); assay type: functional
# A549 [22] = assay: Cell cycle arrest in human A549 cells assessed as accumulation at S phase at 0.5 uM after 48 hrs by propidium iodide satining based FACS analysis (reference value: 34.45%); assay type: functional
# A549 [23] = assay: Cell cycle arrest in human A549 cells after 48 hrs by propidium iodide satining based FACS analysis; assay type: functional
# [24] = biological target: T1, Epidermal growth factor receptor; settings: A549, at 5 µM
# Description: Inhibition of EGF-induced EGFR phosphorylation at Tyrosine residue in human A549 cells at 5 uM preincubated for 2 hrs followed by EGF stimulation measured after 10 mins by Western blot analysis
# [25] = biological target: T1, Epidermal growth factor receptor; settings: A549, at 5 µM; remark: listed apart in the source
# Description: Inhibition of EGF-induced EGFR phosphorylation at Y992 residue in human A549 cells at 5 uM preincubated for 2 hrs followed by EGF stimulation measured after 10 mins by Western blot analysis
structure (smiles),measurement,setting,value
Fc1cccc(COc2ccc(Nc3ncnc4cc(OCCCN5CCOCC5)c(OCCCN5CCOCC5)cc34)cc2Cl)c1,IC50,HCC827,370 nM
same,IC50,NCI-H1975,4870 nM
same,IC50,[1],7 nM
same,IC50,[2],9.3 nM
same,inhibition,[3],Active
same,inhibition,[4],Active
same,Activity,A549 [5],Non-Toxic
same,inhibition,[6],inactive
same,inhibition,[7],Dose-dependent effect
same,inhibition,[8],inactive
same,Activity,A549 [9],8.52%
same,Activity,A549 [10],8.5%
same,Activity,A549 [11],0.23%
same,Activity,A549 [12],4.46%
same,Activity,A549 [13],0.31%
same,viability at 1 µM,A549 [14],92.3%
same,Activity,A549 [15],3.9%
same,Activity,A549 [16],3.43%
same,Activity,A549 [17],0.4%
same,Activity,A549 [18],Dose-dependent effect
same,Activity,A549 [19],17.61%
same,Activity,A549 [20],34.83%
same,Activity,A549 [21],50.78%
same,Activity,A549 [22],33.8%
same,Activity,A549 [23],Dose-dependent effect
same,inhibition,[24],Active
same,inhibition,[25],Active
